Experimental data reported in ChEMBL document CHEMBL3102699, “Synthesis and evaluation of 4-substituted piperidines and piperazines as balanced affinity μ opioid receptor (MOR) agonist/δ opioid receptor (DOR) antagonist ligands” (Bioorg Med Chem Lett, 2014).

Key:
[1] = target: T1, Kappa-type opioid receptor (Homo sapiens, UniProt P41145); experiment: Agonist activity at human kappa opioid receptor expressed in CHO cells assessed as stimulation of [35S]-GTPgammaS binding after 1 hr by liquid scintillation counting analysis; assay type: functional, cell-based
T1 sequence (P41145 whole entry): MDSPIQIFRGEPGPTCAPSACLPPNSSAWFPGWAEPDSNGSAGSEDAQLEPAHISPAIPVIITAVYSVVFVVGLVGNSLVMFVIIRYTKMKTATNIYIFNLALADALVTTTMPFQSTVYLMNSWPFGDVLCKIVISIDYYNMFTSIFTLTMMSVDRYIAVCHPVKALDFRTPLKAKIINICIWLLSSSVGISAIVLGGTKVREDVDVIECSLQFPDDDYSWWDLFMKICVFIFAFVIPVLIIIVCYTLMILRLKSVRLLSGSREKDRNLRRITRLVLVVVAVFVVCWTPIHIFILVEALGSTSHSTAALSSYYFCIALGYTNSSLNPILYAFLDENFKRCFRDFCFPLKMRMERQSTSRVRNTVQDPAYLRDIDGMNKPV

[2] = target: T2, Delta-type opioid receptor (Rattus norvegicus, UniProt P33533); experiment: Displacement of [3H]diprenorphine from rat delta opioid receptor expressed in rat C6 cell membranes after 1 hr by liquid scintillation counting analysis
T2 sequence (P33533 whole entry): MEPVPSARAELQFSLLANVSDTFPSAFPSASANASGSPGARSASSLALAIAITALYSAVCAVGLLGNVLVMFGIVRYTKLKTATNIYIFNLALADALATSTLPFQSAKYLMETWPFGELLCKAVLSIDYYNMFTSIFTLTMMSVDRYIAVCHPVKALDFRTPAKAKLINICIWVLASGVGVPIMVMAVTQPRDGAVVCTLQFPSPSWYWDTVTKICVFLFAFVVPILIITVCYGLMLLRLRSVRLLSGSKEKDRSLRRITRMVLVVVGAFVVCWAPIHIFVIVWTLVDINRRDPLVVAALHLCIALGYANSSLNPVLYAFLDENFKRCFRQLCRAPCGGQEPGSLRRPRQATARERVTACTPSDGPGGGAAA

[3] = target: Mu-type opioid receptor (Rattus norvegicus) (UniProt P33535); experiment: Agonist activity at rat mu opioid receptor expressed in rat C6 cells assessed as stimulation of [35S]-GTPgammaS binding at 10 uM after 1 hr by liquid scintillation counting analysis relative to DAMGO; assay type: functional, cell-based
Mu-type opioid receptor (Rattus norvegicus), sequence (P33535 whole entry): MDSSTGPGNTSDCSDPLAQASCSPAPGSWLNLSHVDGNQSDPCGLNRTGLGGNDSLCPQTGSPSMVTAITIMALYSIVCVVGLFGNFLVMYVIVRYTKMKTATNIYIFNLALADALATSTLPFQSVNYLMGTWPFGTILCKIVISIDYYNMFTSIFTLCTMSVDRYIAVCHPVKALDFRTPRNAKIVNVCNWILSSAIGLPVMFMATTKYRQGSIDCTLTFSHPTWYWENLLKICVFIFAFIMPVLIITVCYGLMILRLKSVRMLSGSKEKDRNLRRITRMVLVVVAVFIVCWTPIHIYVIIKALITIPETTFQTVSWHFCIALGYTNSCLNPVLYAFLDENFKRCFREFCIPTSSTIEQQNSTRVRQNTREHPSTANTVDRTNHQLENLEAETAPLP

[4] = target: T2, Delta-type opioid receptor; experiment: Agonist activity at rat delta opioid receptor expressed in rat C6 cells assessed as stimulation of [35S]-GTPgammaS binding after 1 hr by liquid scintillation counting analysis; assay type: functional, cell-based
[5] = target: T3, Mu-type opioid receptor (Rattus norvegicus, UniProt P33535); experiment: Displacement of [3H]diprenorphine from rat mu opioid receptor expressed in rat C6 cell membranes after 1 hr by liquid scintillation counting analysis
T3 sequence (P33535 whole entry): as above

[6] = target: T3, Mu-type opioid receptor; experiment: Agonist activity at rat mu opioid receptor expressed in rat C6 cells assessed as stimulation of [35S]-GTPgammaS binding after 1 hr by liquid scintillation counting analysis; assay type: functional, cell-based
[7] = target: T1, Kappa-type opioid receptor; experiment: Displacement of [3H]diprenorphine from human kappa opioid receptor expressed in CHO cell membranes after 1 hr by liquid scintillation counting analysis
[8] = target: T1, Kappa-type opioid receptor; experiment: Agonist activity at human kappa opioid receptor expressed in CHO cells assessed as stimulation of [35S]-GTPgammaS binding at 10 uM after 1 hr by liquid scintillation counting analysis relative to U69,593; assay type: functional, cell-based
[9] = target: Mu-type opioid receptor (Homo sapiens, UniProt P35372); experiment: Binding affinity to mu opioid receptor (unknown origin)
Mu-type opioid receptor (Homo sapiens, UniProt P35372), sequence (P35372 whole entry): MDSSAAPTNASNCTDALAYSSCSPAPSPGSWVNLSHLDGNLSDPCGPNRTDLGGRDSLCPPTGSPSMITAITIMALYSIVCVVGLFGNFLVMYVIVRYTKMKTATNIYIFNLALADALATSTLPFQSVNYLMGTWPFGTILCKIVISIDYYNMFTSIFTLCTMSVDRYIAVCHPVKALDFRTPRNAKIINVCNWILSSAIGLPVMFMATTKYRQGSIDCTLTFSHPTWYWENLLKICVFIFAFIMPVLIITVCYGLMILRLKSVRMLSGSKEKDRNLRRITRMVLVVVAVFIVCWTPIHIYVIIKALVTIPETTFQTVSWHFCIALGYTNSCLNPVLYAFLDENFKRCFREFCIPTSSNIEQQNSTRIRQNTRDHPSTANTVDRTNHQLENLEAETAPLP

[10] = target: Delta-type opioid receptor (Homo sapiens, UniProt P41143); experiment: Binding affinity to delta opioid receptor (unknown origin)
Delta-type opioid receptor (Homo sapiens, UniProt P41143), sequence (P41143 whole entry): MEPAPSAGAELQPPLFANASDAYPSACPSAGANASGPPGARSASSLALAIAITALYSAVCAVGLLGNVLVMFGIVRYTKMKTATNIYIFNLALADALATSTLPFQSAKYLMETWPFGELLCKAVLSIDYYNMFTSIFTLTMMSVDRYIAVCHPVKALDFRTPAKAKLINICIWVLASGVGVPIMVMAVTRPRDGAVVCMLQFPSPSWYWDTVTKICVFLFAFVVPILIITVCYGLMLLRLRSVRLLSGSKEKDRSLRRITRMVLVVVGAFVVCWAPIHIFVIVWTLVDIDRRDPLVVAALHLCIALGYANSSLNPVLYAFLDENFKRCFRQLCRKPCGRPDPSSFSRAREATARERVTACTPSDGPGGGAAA

[11] = target: T1, Kappa-type opioid receptor; experiment: Binding affinity to kappa opioid receptor (unknown origin)

| SMILES | EC50 ([1]; cho) | Ki [2] [nM] | %max [3] [%] | EC50 [4] | Ki [5] [nM] | EC50 ([6]; read-out: EC50) [nM] | EC50 ([1]; read-out: EC50) [nM] | Ki [7] [nM] | %max [8] [%] | EC50 ([6]; c6) | Ki [9] [nM] | Ki [10] [nM] | Ki [11] [nM] |
| --- | --- | --- | --- | --- | --- | --- | --- | --- | --- | --- | --- | --- | --- |
| Cc1cc(O)cc(C)c1C[C@H](N)C(=O)N1CCN(C/C=C\Cc2ccccc2)CC1 | Not Active | 28 | 49 | Not Active | 0.3 | 41 |  |  |  |  |  |  |  |
| Cc1cc(O)cc(C)c1C[C@H](N)C(=O)N1CCN(CCCCCc2ccccc2)CC1 |  | 6.9 | 42 | Not Active | 0.42 | 53 | 660 | 39 | 12 |  |  |  |  |
| Cc1cc(O)cc(C)c1C[C@H](N)C(=O)N1CCN(C/C=C/c2cccc3ccccc23)CC1 | Not Active |  |  | Not Active |  |  |  |  |  | Not Active |  |  |  |
| Cc1cc(O)cc(C)c1C[C@H](N)C(=O)N1CCC(Cc2ccccc2)CC1 | Not Active | 7.8 |  | Not Active | 1.4 |  |  | 140 |  | Not Active |  |  |  |
| Cc1cc(O)cc(C)c1C[C@H](N)C(=O)N1CCN(CCCCc2ccccc2)CC1 | Not Active | 6.6 | 43 | Not Active | 0.45 | 64 |  | 78 |  |  |  |  |  |
| Cc1cc(O)cc(C)c1C[C@H](N)C(=O)N1CCN(CCCc2ccccc2)CC1 | Not Active | 36 | 23 | Not Active | 3.8 | 150 |  | 250 |  |  |  |  |  |
| Cc1cc(O)cc(C)c1C[C@H](N)C(=O)N1CCN(CCC(c2ccccc2)c2ccccc2)CC1 | Not Active | 21 |  | Not Active | 1.1 |  |  | 150 |  | Not Active |  |  |  |
| Cc1cc(O)cc(C)c1C[C@H](N)C(=O)N1CCC(Cc2ccccc2)c2ccccc21 (stereo partly specified) | Not Active | 14 |  | Not Active | 29 |  |  | 310 |  | Not Active |  |  |  |
| Cc1cc(O)cc(C)c1C[C@H](N)C(=O)N1CCC(CCCc2ccccc2)CC1 | Not Active | 12 | 26 | Not Active | 2 | 119 |  | 110 |  |  |  |  |  |
| Cc1cc(O)cc(C)c1C[C@H](N)C(=O)N1CCN(CCCc2cccc3ccccc23)CC1 | Not Active |  |  | Not Active |  |  |  |  |  |  |  |  |  |
| Cc1cc(O)cc(C)c1C[C@H](N)C(=O)N1CCN(C/C=C/Cc2ccccc2)CC1 |  | 23 | 36 | Not Active | 0.29 | 20 |  |  |  |  |  |  |  |
| Cc1cc(O)cc(C)c1C[C@H](N)C(=O)N1CCCc2ccccc21 |  |  |  |  |  |  |  |  |  |  | 25.8 | 33 | 36.5 |
